# Results taken from patent publication US7667052B2 (Eisai R&D Management Co., Ltd., priority 2003, dated 2010).
# Tests used:
# [1] = test system: p388 mouse lymphoma; experiment: Growth suppressing activity to leukemia cell, Alamar Blue; format: cell-based; conditions: 72 h, p388, 3 days, read-out: Multiplication suppressing activity IC50
# Method: (§1) Dami human blood megakaryocytic cell, MOLT 4 human acute lymphoblastic cell, K562 human chronic myelogenous cell, U937 human histcytic lymphoma and p388 mouse lymphoma cultured in RPMI 1640 (manufactured by SIGMA Co., Ltd.) containing 10% fetal calf serum were dispensed in 96-well plates by 2×10^3 cells/180 μl, and they were cultured at 37° C. overnight in a CO2 incubator (5% CO2). Then, 20 μL of the above-mentioned incubation solution containing 11107B diluted with 2-fold succession was added, and they were further cultured in a CO2 incubator for 3 days.
# (§2) 20 μL of Alamar Blue reagent (Biosource Co.) was added to the cultured cell, and fluorescence activity (ex 530 nm/em 590 nm) was measured by a micro plate reader (ARBO, Perkin-Elmer Co.) after 3 to 5 hours. The cell growth of the control to which the compound is not added is set as 100%, the concentration at which it was suppressed by 50% was determined.
# [2] = test system: U937 human histcytic lymphoma; experiment: as above; format: cell-based; conditions: U-937, 72 h, U937, 3 days, read-out: Multiplication suppressing activity IC50
# Method: as §1, §2
# [3] = test system: K562 human chronic myelogenous cell; experiment: as above; format: cell-based; conditions: 72 h, K562, 3 days, read-out: Multiplication suppressing activity IC50
# Method: as §1, §2
# [4] = test system: Dami human blood megakaryocytic cell; experiment: as above; format: cell-based; conditions: 72 h, 3 days, read-out: Multiplication suppressing activity IC50
# Method: as §1, §2
# [5] = test system: MOLT 4 human acute lymphoblastic cell; experiment: as above; format: cell-based; conditions: MOLT-4, 72 h, MOLT4, 3 days, read-out: Multiplication suppressing activity IC50
# Method: as §1, §2
# [6] = test system: H460, U251, BSY-1, MDA-MB435, PC-3, DU145, OVCAR-3, WiDr and B16 melanoma cells; experiment: Growth suppressing activity to various cancer cells, Alamar Blue; format: cell-based, human; mouse; conditions: 72 h; range over nine cancer cell lines, 3 days; read-out: growth suppressing activity IC50 values for the studied cell lines
# Method: H460 human lung cancer cell, U251 human glioma cell, BSY-1 and MDA-MB435 human breast cancer cell, PC-3 and DU145 human prostate cancer cell, OVCAR-3 human ovarian cancer cell, WiDr human colon cancer cell and B16 melanoma mouse melanoma cell cultured in DMEM (manufactured by SIGMA Co., Ltd.) containing 10% fetal calf serum were dispensed in 96-well plates by 2×10^3 cells/180 μl, and they were cultured at 37° C. overnight in a CO2 incubator (5% CO2). Then, 20 μL of the above-mentioned incubation solution containing test compounds diluted with 2-fold succession was added, and they were further cultured in a CO2 incubator for 3 days.
# as §2, with “cells,” for “cell,”, “and after 3 to 5 hours,” for “and”, “Co.).” for “Co.) after 3 to 5 hours.”
smiles,measurement,setting,value
CCC(O)C(C)C1OC1CC(C)/C=C/C=C(\C)C1OC(=O)CC(O)CCC(C)(O)C(OC(C)=O)/C=C/C1C (stereo not drawn) [11107B],IC50,[1],2 nM
same,IC50,[2],1.1 nM
same,IC50,[3],2.1 nM
same,IC50,[4],1.2 nM
same,IC50,[5],1.5 nM
same,IC50,[6],0.9 to 2.9 nM
